Molecules are shown by their SMILES. pEC50: −log10 of the molar value.

The target of this assay is T1, KATP channels (Homo sapiens, UniProt O60706+Q14654).
T1 construct: TE671 human medulloblastoma cells were obtained from ATCC; host or cells: TE671 human medulloblastoma cells
T1 sequence (O60706 1-1549 isoform O60706-2): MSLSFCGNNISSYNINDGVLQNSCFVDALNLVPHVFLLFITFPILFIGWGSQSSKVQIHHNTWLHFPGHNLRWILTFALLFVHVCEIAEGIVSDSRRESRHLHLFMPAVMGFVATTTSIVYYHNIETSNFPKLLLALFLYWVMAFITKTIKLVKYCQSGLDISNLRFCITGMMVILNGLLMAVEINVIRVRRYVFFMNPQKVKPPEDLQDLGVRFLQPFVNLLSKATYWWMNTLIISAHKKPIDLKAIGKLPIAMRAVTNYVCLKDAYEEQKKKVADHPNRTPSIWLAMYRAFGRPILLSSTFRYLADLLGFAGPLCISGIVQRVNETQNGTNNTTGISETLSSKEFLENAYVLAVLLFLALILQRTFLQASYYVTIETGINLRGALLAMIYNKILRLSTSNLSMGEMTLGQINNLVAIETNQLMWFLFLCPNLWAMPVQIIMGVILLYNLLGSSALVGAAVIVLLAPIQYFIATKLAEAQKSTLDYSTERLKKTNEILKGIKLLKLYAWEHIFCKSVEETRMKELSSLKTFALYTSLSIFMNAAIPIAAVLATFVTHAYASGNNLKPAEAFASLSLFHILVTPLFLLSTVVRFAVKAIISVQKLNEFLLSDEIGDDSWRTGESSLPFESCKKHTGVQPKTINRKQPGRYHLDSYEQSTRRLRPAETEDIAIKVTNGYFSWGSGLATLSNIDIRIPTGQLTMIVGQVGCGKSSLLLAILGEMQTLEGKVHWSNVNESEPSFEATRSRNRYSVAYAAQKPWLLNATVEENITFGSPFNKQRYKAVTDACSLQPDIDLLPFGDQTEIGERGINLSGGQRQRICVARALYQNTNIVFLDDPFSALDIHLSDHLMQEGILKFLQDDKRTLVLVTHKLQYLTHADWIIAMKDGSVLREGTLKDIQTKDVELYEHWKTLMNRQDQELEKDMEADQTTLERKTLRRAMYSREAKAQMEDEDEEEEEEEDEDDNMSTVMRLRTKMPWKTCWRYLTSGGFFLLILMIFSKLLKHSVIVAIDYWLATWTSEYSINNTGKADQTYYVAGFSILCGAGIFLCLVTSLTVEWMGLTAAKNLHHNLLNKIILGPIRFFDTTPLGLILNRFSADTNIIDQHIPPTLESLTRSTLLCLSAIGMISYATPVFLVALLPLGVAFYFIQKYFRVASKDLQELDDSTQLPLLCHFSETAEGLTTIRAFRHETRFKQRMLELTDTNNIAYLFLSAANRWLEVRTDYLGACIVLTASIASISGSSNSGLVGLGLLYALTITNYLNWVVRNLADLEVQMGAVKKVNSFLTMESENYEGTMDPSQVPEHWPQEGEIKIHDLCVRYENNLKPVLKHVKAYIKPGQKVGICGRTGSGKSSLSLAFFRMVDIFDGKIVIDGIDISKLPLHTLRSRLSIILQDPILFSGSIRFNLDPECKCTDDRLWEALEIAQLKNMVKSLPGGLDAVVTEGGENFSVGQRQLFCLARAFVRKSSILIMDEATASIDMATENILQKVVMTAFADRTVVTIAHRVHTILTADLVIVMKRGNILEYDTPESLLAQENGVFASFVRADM
T1 sequence (Q14654 whole entry): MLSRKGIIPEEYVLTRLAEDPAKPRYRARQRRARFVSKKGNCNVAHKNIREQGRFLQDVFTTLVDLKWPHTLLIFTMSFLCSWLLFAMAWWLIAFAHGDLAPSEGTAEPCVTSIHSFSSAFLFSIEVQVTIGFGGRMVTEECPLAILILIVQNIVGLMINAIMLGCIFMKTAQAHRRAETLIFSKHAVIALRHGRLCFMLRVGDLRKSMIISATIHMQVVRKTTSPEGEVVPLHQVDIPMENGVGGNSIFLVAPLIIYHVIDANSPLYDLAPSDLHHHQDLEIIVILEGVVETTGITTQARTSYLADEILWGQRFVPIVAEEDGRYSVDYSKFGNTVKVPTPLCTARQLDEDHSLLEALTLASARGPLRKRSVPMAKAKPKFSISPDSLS
As to the kind of experiment: Potassium Channel Assay (FLIPR membrane potential, TE671 cells). Format: cell-based. The settings on record: TE671 human medulloblastoma cells, Membrane Potential Assay Dye, room temperature, hyperpolarization from KATP channel opening. As for the experimental part: TE671 human medulloblastoma cells were obtained from ATCC and grown in Dulbecco's modified Eagle's medium (DMEM) supplemented with 10% fetal bovine serum, 100 U/ml penicillin and 100 U/ml streptomycine.
The day before testing, the cells were plated in black 96-well plates at 50K/well. On the day of testing, the growth media was removed, then 100 μl of FLIPR buffer (20 mM HEPES, 120 mM NaCl, 2 mM KCl, 2 mM CaCl2, 1 mM MgCl2, 5 mM Glucose) and 100 μl of Membrane Potential Assay Dye (Molecular Devices) dissolved in FLIPR buffer were added to each well. The cells were incubated at room temperature for 15 to 30 min.
The effect of test compounds on KATP channels were evaluated on a fluorometric imaging plate reader (FLIPR, Molecular Devices) at room temperature. After a baseline period, 50 μl of 5× stock solution of test compound prepared in FLIPR buffer was added and fluorescent change was monitored for 3 minutes. After this reading, glyburide, a KATP channel blocker, was added to a final concentration of 5 μM to check the specificity of the test compound as a KATP channel openers. Hyperpolarization resulting from KATP channel opening was observed as a decrease in fluorescent intensity.
Representative compounds of the present invention were tested according to the procedure described above, with results as listed in Table 7, below.
Turning to `CC1(C)Oc2ccc(C#N)cc2[C@@H](n2nc(-c3ccc(Cl)cc3)ccc2=O)[C@@H]1O` (racemic) [Compound 14, 4-[3-(4-Chloro-phenyl)-6-oxo-6H-pyridazin-1-yl]-3-hydroxy-2,2-dimethyl-chroman-6-carbonitrile], the pEC50 is less than 4.52.

Compound `CC1(C)Oc2ccc(C#N)cc2[C@@H](Oc2ccc(-c3ccc(Cl)cc3)nn2)[C@@H]1O` (racemic) [Compound 56, 4-[6-(4-Chloro-phenyl)-pyridazin-3-yloxy]-3-hydroxy-2,2-dimethyl-chroman-6-carbonitrile] gave a pEC50 of less than 4.52. Next, `CC1(C)C=C(Nc2nc(=O)c3ccccc3[nH]2)c2cc(C#N)ccc2O1` [Compound 46, 2,2-Dimethyl-4-(4-oxo-1,4-dihydro-quinazolin-2-ylamino)-2H-chromene-6-carbonitrile]: 4.55; `CC1(C)Oc2ccc(C#N)cc2[C@@H](Oc2noc3cc(Cl)ccc23)[C@@H]1O` [Compound 22, 4R-(6-Chloro-benzo[d]isoxazol-3-yloxy)-3S-hydroxy-2,2-dimethyl-chroman-6-carbonitrile]: 6.59. Compound `CC1(C)Oc2ccc(C#N)cc2[C@@H](Sc2nc3cc(OC(F)F)ccc3[nH]2)[C@@H]1O` (racemic) [Compound 16, 4-(5-Difluoromethoxy-1H-benzoimidazol-2-ylsulfanyl)-3-hydroxy-2,2-dimethyl-chroman-6-carbonitrile] showed a pEC50 of less than 4.52. Next, `CC1(C)Oc2ccc(S(=O)(=O)c3ccccc3)cc2[C@@H](Nc2noc3c(Cl)cccc23)[C@@H]1O` [Compound 87, (3S,4R)-6-Benzenesulfonyl-4R-(7-chloro-benzo[d]isoxazol-3-ylamino)-2,2-dimethyl-chroman-3S-ol]: less than 4.52; `COc1ccc2onc(O[C@@H]3c4cc(C#N)ccc4OC(C)(C)[C@H]3O)c2c1` [Compound 44, (3S,4R)-3-Hydroxy-4-(5-methoxy-benzo[d]isoxazol-3-yloxy)-2,2-dimethyl-chroman-6-carbonitrile]: 4.91. Turning to `CC1(C)Oc2cc(Cl)c(Cl)cc2[C@@H](Nc2noc3ccc(Cl)cc23)[C@@H]1O` [Compound 91, 6,7-Dichloro-4R-(5-chloro-benzo[d]isoxazol-3-ylamino)-2,2-dimethyl-chroman-3S-ol], the pEC50 is 4.61. With `N#Cc1ccc2c(c1)[C@@H](NC(=O)c1cccc(Cl)c1)[C@H](O)C1(CCS(=O)(=O)CC1)O2` [Compound 201, (3S,4R)-3-Chloro-N-[6-cyano-3-hydroxy-2,2-(tetrahydro-4-sulfonylpyranyl)-chroman-4-yl]-benzamide], the pEC50 is less than 4.52.

`CC1(C)Oc2ccc(C#N)cc2[C@@H](N2C(=O)C(=O)c3cc(Cl)ccc32)[C@@H]1O` [Compound 24, (3S,4R)-4-(5-Chloro-2,3-dioxo-2,3-dihydro-indol-1-yl)-3-hydroxy-2,2-dimethyl-chroman-6-carbonitrile] gave a pEC50 of 5.44. Next, `CC1(C)Oc2ccc(C#N)cc2[C@@H](n2c(=O)ccn2-c2ccc(Cl)cc2)[C@@H]1O` (racemic) [Compound 15, 4-[2-(4-Chloro-phenyl)-5-oxo-2,5-dihydro-pyrazol-1-yl]-3-hydroxy-2,2-dimethyl-chroman-6-carbonitrile]: 5.23. Next, `CC1(C)Oc2ccc(C#N)cc2[C@@H](n2oc3cc(Cl)ccc3c2=O)[C@@H]1O` [Compound 117, 4R-(6-Chloro-3-oxo-3H-benzo[d]isoxazol-2-yl)-3S-hydroxy-2,2-dimethyl-chroman-6-carbonitrile]: less than 4.52; `CC1(C)Oc2cc(Cl)c(Cl)cc2[C@@H](Oc2noc3cc(Cl)ccc23)[C@@H]1O` [Compound 93, 6,7-Dichloro-4R-(6-chloro-benzo[d]isoxazol-3-yloxy)-2,2-dimethyl-chroman-3S-ol]: 4.69; `CC1(C)Oc2ccc(S(=O)(=O)c3ccc(Cl)cc3)cc2[C@@H](n2oc3cc(Cl)ccc3c2=O)[C@@H]1O` [Compound 102, 6-Chloro-2-[6-(4-chloro-benzenesulfonyl)-3S-hydroxy-2,2-dimethyl-chroman-4-yl]-R-benzo[d]isoxazol-3-one]: 5.10.

Compound `Cc1cn([C@@H]2c3cc(C#N)ccc3OC(C)(C)[C@H]2O)c(-c2ccccc2)n1` (racemic) [Compound 9, 3-Hydroxy-2,2-dimethyl-4-(4-methyl-2-phenyl-imidazol-1-yl)-chroman-6-carbonitrile] showed a pEC50 of less than 4.52. In turn, `CC1(C)Oc2ccc(C#N)cc2[C@@H](N2C(=O)c3ccc(Cl)cc3C2=O)[C@@H]1O` [Compound 115, 4-(5-Chloro-1,3-dioxo-1,3-dihydro-isoindol-2-yl)-3-hydroxy-2,2-dimethyl-chroman-6-carbonitrile] gave a pEC50 of 5.50. For the compound `CC1(C)Oc2ccc(C#N)cc2[C@@H](Oc2cc(N)nc3ccccc23)[C@@H]1O` (racemic) [Compound 8, 4-(2-Amino-quinolin-4-yloxy)-3-hydroxy-2,2-dimethyl-chroman-6-carbonitrile], the pEC50 was 5.43. Next, `CC1(C)Oc2ccc(C#N)cc2[C@@H](OP(=O)(c2ccccc2)c2ccccc2)[C@@H]1O` [Compound 27]: less than 4.52; `CC1(C)Oc2ccc(S(=O)(=O)c3cccc(F)c3)cc2[C@@H](Nc2noc3ccc(Cl)cc23)[C@@H]1O` [Compound 103, 4R-(5-Chloro-benzo[d]isoxazol-3-ylamino)-6-(3-fluoro-benzenesulfonyl)-2,2-dimethyl-chroman-3S-ol]: 5.11. In turn, `CC1(C)Oc2ccc(C#N)cc2[C@@H](n2nc(N)c3ccccc32)[C@@H]1O` [Compound 37, 4R-(3-Amino-indazol-1-yl)-3S-hydroxy-2,2-dimethyl-chroman-6-carbonitrile] had a pEC50 of 4.70.

The compound `CC1(C)Oc2ccc(C#N)cc2[C@@H](Nc2nc3cc([N+](=O)[O-])ccc3s2)[C@@H]1O` (racemic) [Compound 6, 3-Hydroxy-2,2-dimethyl-4-(5-nitro-benzothiazol-2-ylamino)-chroman-6-carbonitrile] gave a pEC50 of 5.51. `CC1(C)Oc2ccc(S(=O)(=O)N3CCCCC3)cc2[C@@H](Oc2noc3cc(Cl)ccc23)[C@@H]1O` [Compound 83, 4R-(6-Chloro-benzo[d]isoxazol-3-yloxy)-2,2-dimethyl-6-(piperidine-1-sulfonyl)-chroman-3S-ol] gave a pEC50 of less than 4.52. Next, `CC1(C)C=C(n2cncc2-c2ccc(Cl)cc2)c2cc(C#N)ccc2O1` [Compound 63, 4-[5-(4-Chloro-phenyl)-imidazol-1-yl]-2,2-dimethyl-2H-chromene-6-carbonitrile]: 5.10; `CC1(C)C=C(n2ccnc2-c2ccc(Cl)cc2)c2cc(C#N)ccc2O1` [Compound 54, 4-[2-(4-Chloro-phenyl)-imidazol-1-yl]-2,2-dimethyl-2H-chromene-6-carbonitrile]: 5.74.

`CC1(C)Oc2ccc(C#N)cc2[C@@H](S(=O)(=O)c2nc3cc(Cl)ccc3o2)[C@@H]1O` (racemic) [Compound 17, 4-(5-Chloro-benzooxazole-2-sulfonyl)-3-hydroxy-2,2-dimethyl-chroman-6-carbonitrile] showed a pEC50 of 5.17. Next, `CC1(C)Oc2ccncc2[C@@H](n2ccnc2-c2ccccc2)[C@@H]1O` (racemic) [Compound 105, 2,2-Dimethyl-4-(2-phenyl-imidazol-1-yl)-3,4-dihydro-2H-pyrano[3,2-c]pyridin-3-ol]: less than 4.52; `CCN(CC)S(=O)(=O)c1ccc2c(c1)[C@@H](Nc1noc3c(Cl)cccc13)[C@H](O)C(C)(C)O2` [Compound 82, 4R-(7-Chloro-benzo[d]isoxazol-3-ylamino)-3S-hydroxy-2,2-dimethyl-chroman-6-sulfonic acid diethylamide]: 4.58. Next, `CCN(CC)S(=O)(=O)c1ccc2c(c1)[C@@H](Oc1noc3ccc(Cl)cc13)[C@H](O)C(C)(C)O2` [Compound 85, 4R-(5-Chloro-benzo[d]isoxazol-3-yloxy)-3S-hydroxy-2,2-dimethyl-chroman-6-sulfonic acid diethylamide]: less than 4.52. Next, `CC1(C)Oc2ccc(C#N)cc2[C@@H](N2C(=O)c3ccncc3C2=O)[C@@H]1O` [Compound 26, 4R-(1,3-Dioxo-1,3-dihydro-pyrrolo[3,4-c]pyridin-2-yl)-3S-hydroxy-2,2-dimethyl-chroman-6-carbonitrile]: 5.22; `CC1(C)Oc2ccc(C#N)cc2[C@@H](NP(C)(=O)c2ccccc2)[C@@H]1O` (stereo partly drawn) [Compound 28]: 4.73; `CC1(C)Oc2ccc(C(=O)c3ccccc3)cc2[C@@H](n2oc3cc(Cl)ccc3c2=O)[C@@H]1O` [Compound 96, 2-(6-Benzoyl-3S-hydroxy-2,2-dimethyl-chroman-4-yl)-6-chloro-4R-benzo[d]isoxazol-3-one]: 5.19. As for `CC1(C)Oc2ccc(C#N)cc2[C@@H](n2cncc2-c2ccc(Cl)cc2)[C@@H]1O` (racemic) [Compound 18, 4-[5-(4-Chloro-phenyl)-imidazol-1-yl]-3-hydroxy-2,2-dimethyl-chroman-6-carbonitrile], the pEC50 is 5.13.

`CC1(C)Oc2ccc(C#N)cc2[C@@H](N2CC3(CCCCC3)CC2=O)[C@@H]1O` [Compound 34, 3S-Hydroxy-2,2-dimethyl-4R-(3-oxo-2-aza-spiro[4.5]dec-2-yl)-chroman-6-carbonitrile] gave a pEC50 of 4.67.

In general, pEC50 refers to −log10 of the EC50, conventionally taken in molar units. Higher therefore signals a low EC50.
